Measured values from patent US8252832B2, “Kinesin inhibitors as cancer therapeutics” (Novartis AG, priority 2007, dated 2012).
pEC50, pIC50: −log10 of the molar value.

Legend:
T47-D = assay: LDH release assay; type: cell-based; details: Homo sapiens, T47D
Text: (§1) Identification of tumor types that are the most sensitive to the KSP inhibitors of the present invention can be accomplished using an unbiased approach that uses several cell-based assays. The assays chosen were as follows: • CellTiter-Glo®. This is an assay designed to measure ATP concentration in a cell culture, and can be correlated to cell number. Briefly CellTiter-Glo® (Promega Corporation) is a homogeneous method using the single CellTiter-Glo® reagent to detect ATP wherein ATP in the assay drives the activity of a thermostable luciferase to create a luminescent signal which can then be measured and correlated with the number of viable cells. Briefly, for adherent cells, 1,000 to 5,000 cells/well were plated in 96-well plates (100 μl/well) and let to adhere for 24 hours before being treated with drug. For non-adherent cells, 1,000 to 10,000 cells/well were plated in 96-well plates (100 μl/well) and immediately treated with drug. Drug dilutions were prepared in DMSO at 1000 times the final concentration. These dilutions were then diluted 1/100 in growth media before being added to the cells (11 μl/well) to achieve the desired final concentration. After 48 h in a 37° C. tissue culture incubator, the plates were processed for the CellTiter-Glo®assay according to the manufacturer's instructions. Protocol for a 72 hour cell proliferation assay: The 72 hour assay was performed the same way as the 48 hour assay except for the following modifications: For adherent cells, 500 to 5,000 cells/well were plated in 96-well plates (90 μl/well cell growth media) and left to adhere for 24 hours before being treated with drug. For non-adherent cells, 1,000 to 10,000 cells/well were plated in 96-well plates (90 μl/well cell growth media) and immediately treated with drug. Data values presented represent the concentration of test compound required for a 50% reduction in growth. • LDH release. The Cytotoxicity Detection KitPLUS (LDH) assay (Roche Diagnostics, Manheim, Germany) measures the amount of LDH released in the media by dying cells; LDH catalyzes the conversion of lactate into pyruvate. The enzymatic reaction is coupled to a chemical reaction that uses a tetrazolium salt to form a formazan that is red and can be detected by its absorbance at 490 nm. This assay measures the amount of cell death after drug treatment. Cells were plated at 10,000 cells/well in 96-well plates (100 μl/well). Adherent cells were let to adhere for 24 hours before being treated with drug, whereas non-adherent cells were immediately treated with drug. Drug dilutions were prepared in DMSO at 1000 times the final concentration. These dilutions were then diluted 1/100 in growth media before being added to the cells (11 μl/well) to achieve the desired final concentration. […] The media only values were subtracted from all the data points before analysis. Data values presented correspond to the compound concentration wherein LDH output is at half maximal level. • Caspase-Glo® 3/7. The Caspase-Glo® 3/7 Assay (Promega Corporation) is a homogeneous luminescent assay that measures caspase-3/7 activities. The assay provides a proluminescent caspase-3/7 DEVD-aminoluciferin substrate and a thermostable luciferase in a reagent optimized for caspase-3/7 activity, luciferase activity and cell lysis. Adding the single Caspase-Glo® 3/7 Reagent results in cell lysis, followed by caspase cleavage of the substrate. This liberates free aminoluciferin, which is consumed by the luciferase, generating a luminescent signal. The signal is proportional to caspase-3/7 activity. Data values presented correspond to the compound concentration wherein caspase 3/7 activity is at half maximal level.

HCT-116 = assay: LDH release assay; type: cell-based; details: Homo sapiens
Text: as §1

[1] = biological target: T1, motor domain of human KSP (Eg 5, KNSL1) (Homo sapiens, UniProt P52732); assay: Assay for determining KSP activity (microtubule/KSP ATPase, Biomol Green); type: biochemical; details: read-out: In vitro activity (IC-50 - nm)
T1 construct: KSP motor protein (i.e., the KSP motor domain); made in house
T1 sequence (P52732 18-359 limits assumed): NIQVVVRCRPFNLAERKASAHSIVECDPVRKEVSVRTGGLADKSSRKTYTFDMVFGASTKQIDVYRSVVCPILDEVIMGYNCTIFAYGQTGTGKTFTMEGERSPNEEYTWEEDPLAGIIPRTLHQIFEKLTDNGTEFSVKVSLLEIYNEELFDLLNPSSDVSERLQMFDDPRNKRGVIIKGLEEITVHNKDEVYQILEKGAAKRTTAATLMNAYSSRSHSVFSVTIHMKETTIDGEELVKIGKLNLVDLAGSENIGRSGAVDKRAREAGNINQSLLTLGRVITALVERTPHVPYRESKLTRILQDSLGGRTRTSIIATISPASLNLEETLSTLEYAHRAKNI
Protocol: Purified microtubules obtained from bovine brain were purchased from Cytoskeleton Inc. (Denver, Colo., USA). The motor domain of human KSP (Eg 5, KNSL1) was cloned, expressed, and purified to greater than 95% homogeneity. Biomol Green™ was purchased from Affinity Research Products Ltd. (Matford Court, Exeter, Devon, United Kingdom). Microtubules and KSP motor protein (i.e., the KSP motor domain) were diluted in assay buffer (20 mM Tris-HCl (pH 7.5), 1 mM MgCl2, 10 mM DTT and 0.25 mg/mL BSA) to a final concentration of 35 μg/mL microtubules and 45 nM KSP. The microtubule/KSP mixture was then pre-incubated at 37° C. for 10 min to promote the binding of KSP to microtubules.
To each well of the testing plate (384-well plate) containing 1.25 μL of inhibitor or test compound in DMSO (or DMSO only, in the case of controls) were added 25 μL of ATP solution (ATP diluted to a concentration of 300 μM in assay buffer) and 25 μL of the above-described microtubule/KSP solution. The plates were incubated at RT for 1 hour. Following incubation, 65 μL of Biomol Green™ (a malachite green-based dye that detects the release of inorganic phosphate) was added to each well. The plates were incubated for an additional 5-10 minutes then the absorbance at 630 nm was determined using a Victor II plate reader. The amount of absorbance at 630 nm corresponded to the amount of KSP activity in the samples. The IC50 of each inhibitor or test compound was then determined based on the decrease in absorbance at 630 nm at each concentration, via nonlinear regression using either XLFit for Excel or Prism data analysis software by GraphPad Software Inc.

CC(C)(C)[C@H](c1nc(-c2cc(F)ccc2F)cn1Cc1ccccc1)N(CC[C@H](N)CF)C(=O)CO [Compound IIa]
pEC50 (T47-D; 48 h): 9.49
pEC50 (T47-D; 72 h): 9.48
pEC50 (HCT-116; HCT-116, 24 h): 10.22
pEC50 (HCT-116; HCT-116, 48 h): 10.00
pEC50 (HCT-116; HCT-116, 72 h): 10.00
pIC50 [1]: 9.10
